“And” between values parts separate entries of the source, which are not always exact repeats. Equal values may be shown once. “Also recorded” adds a separate entry of the source.
Key:
Corneal epithelial cells [1] = assay: Lipid production in corneal epithelial cells, dilutions of 3 mg/ml formulation, Oil Red O (Example 6); type: cell-based; settings: ninth day
Procedure: Corneal epithelial cells were cultured in vitro and treated with 0.03 mg/ml and other dilutions of a 3 mg/ml formulation of Spironolactone (100× (0.03 mg/ml), 200× (0.015 mg/ml), 500× (0.006 mg/ml), and 1000× (0.003 mg/mI)). The corneal epithelial cells were cultured in vitro to about 10-20% confluence. The cell medium with added spironolactone was changed every 2-3 days. On the ninth day, the cells were stained for lipids with Oil Red O.

Corneal epithelial cells [2] = assay: Lipid production in corneal epithelial cells, dilutions of 0.025 mg/ml formulation, Oil Red O (Example 7); type: cell-based; settings: seventh day
Procedure: (§1) Corneal epithelial cells were cultured in vitro to about 30% confluence and treated with various dilutions of a 0.025 mg/mL spironolactone eye drop formulation (i.e. 50×, 100×, 500×, 1000×, and 5000×, corresponding to 0.0005 mg/ml, 0.00025 mg/ml, 0.00005 mg/ml, 0.000025 mg/ml, and 0.000005 mg/ml). The cell medium with spironolactone was changed every two days. On the seventh day, the cells were stained for lipids with Oil Red O.

Corneal epithelial cells [3] = assay: In vitro toxicity / cell morphology in corneal epithelial cells (Example 7); type: cell-based
Procedure: as §1
Toxicity to cells was also taken into account. Toxicity in the context of this disclosure refers to any amount of cell death upon exposure to the composition. Little to no toxicity or relatively no toxicity refers to some amount of cell death to no cell death upon exposure to the composition. Alternatively or additionally, the morphology should look phenotypically normal for the cells. Toxicity can be measured quantitatively or qualitatively, in vivo or in vitro. Standard assays, such as an LDH (lactate dehydrogenase) assay, can be used to quantify toxicity of the compositions and to determine a TC50 concentration, i.e., a concentration that results in cell death for 50% of the cells upon exposure of the cells to that concentration. […] As such, a concentration of 0.025 mg/cc or lower appears to be safe. […] Compositions with lower amounts of active agent (e.g., 0.0000025 mg/cc) may be useful for maintaining a patient's condition, without subjecting the patient to long-term toxicity, for example, once the patient has been stabilized by treatment for some amount of time with a higher concentration.

ELOVL4 gene expression = assay: RT-PCR of ELOVL4 gene expression in HTCE cells (Example 9); type: cell-based, Human; settings: 7th day; for ELOVL4 gene expression, induction: normalized
Procedure: HTCE cells were cultured in 6 well plates and grown to about 30% confluence. The cells were then treated with different dilutions of a 0.025 mg/ml Spironolactone eye drop formulation (i.e. 50×, 100×, 500×, 1000×, and 5000×, corresponding to 0.0005 mg/ml, 0.00025 mg/ml, 0.00005 mg/ml, 0.000025 mg/ml, and 0.000005 mg/ml). The medium with different concentrations of Spironolactone was changed every 2 days. On the 7th day, the cells were collected, and the RNA was extracted and subject to RT-PCR analysis for gene expression of ELOVL4, an enzyme involved in the biosynthesis of fatty acids (particularly very long chain fatty acids (VLCFAs)).

[4] = Solubility of spironolactone; type: physicochemical; settings: with the help of Pluronic F127
Procedure: The present inventors were able to get spironolactone into solution at 0.015 mg/ml with the help of Pluronic F127.

[5] = according to the literature; cited from earlier work
[6] = system: patients with moderate to severe meibomian gland disease; assay: Pilot study (Example 3): topical spironolactone ophthalmic suspension in MGD, retrospective pre-post
[7] = 1000× dilution (0.000025 mg/ml)
[8] = 5000× dilution (0.000005 mg/ml)
[9] = post-treatment, n=20, lissamine green, scale 0-3
[10] = post-treatment, n=20, scale 0-4
[11] = pre vs post-treatment, n=20, positive = score decrease, scale 0-4
[12] = pre-post change, n=20, scale 0-3
[13] = pre-post change, n=20, scale 0-4

With `CC(=O)SC1CC2=CC(=O)CCC2(C)C2CCC3(C)C(CCC34CCC(=O)O4)C12` (stereo not drawn) [spironolactone, 7α-acetylthio-3-oxo-17α-pregn-4-ene-21,17-carbolactone] the “lipid production (Oil Red O)” value (Corneal epithelial cells [1]; 0.006 mg/ml (500× dilution)) was “enhanced lipid production”, the “lipid production (Oil Red O)” value (Corneal epithelial cells [1]; 0.015 mg/ml (200× dilution)) was “enhanced lipid production” and the “lipid production (Oil Red O)” value (Corneal epithelial cells [1]; 0.03 mg/ml (100× dilution)) was “enhanced lipid production”. For the same molecule, the “lipid production (Oil Red O)” value (Corneal epithelial cells [2]; [7]) was “lipid production was still present”, the “lipid production (Oil Red O)” value (Corneal epithelial cells [2]; [8]) was “no lipid is being formed” and the in vitro toxicity (Corneal epithelial cells [3]; 0.025 mg/ml) was “some in vitro toxicity”. For the same molecule, the “in vitro toxicity / cell morphology” value (Corneal epithelial cells [3]; 100× dilution (0.00025 mg/ml)) was “non confluence and some relative toxicity”, the “in vitro toxicity / cell morphology” value (Corneal epithelial cells [3]; 500× dilution (0.00005 mg/ml)) was “confluent nontoxic cell morphology” and the “in vitro toxicity / cell morphology” value (Corneal epithelial cells [3]; [7]) was “no in vitro toxicity; also recorded: confluent nontoxic cell morphology”. The “in vitro toxicity / cell morphology” value (Corneal epithelial cells [3]; [8]) was “confluent nontoxic cell morphology”, the “ELOVL4 gene expression, induction” value (ELOVL4 gene expression; 0.00025 mg/ml (100× dilution)) was “approximately 2 fold” and the “ELOVL4 gene expression, induction” value (ELOVL4 gene expression; 0.0005 mg/ml (50× dilution)) was “approximately 4.5 fold”. For the same molecule, the ELOVL4 gene expression (ELOVL4 gene expression; remaining treatment groups (0.00005, 0.000025, 0.000005 mg/ml)) was “no change relative to control”, the “concentration brought into solution” value [4] was 15000 ng/mL and the solubility in water [5] was “practically insoluble in water”. The “side effects after topical administration” value ([6]; patients of the pilot study) was “A small percentage of the patients reported a mild temporary burning sensation in the eye”, the “Vision OD, Mean” value ([6]; post-treatment, n = 19) was 0.069±0.051 log Mar units and 0.069 log Mar units and the “Schirmer's OD, Mean” value ([6]; post-treatment, n=20) was 13.6 mm. The “Schirmer's OS, Mean” value ([6]; post-treatment, n=20) was 14.6 mm, the “Vision OS, Mean” value ([6]; post-treatment, n=20) was 0.063±0.032 log Mar units and 0.063 log Mar units and the “Conjunctival OD (Nasal), Mean” value [6, 9] was 0.83±0.189 and 0.83. The “Conjunctival OD (Temporal), Mean” value [6, 9] was 0.55±0.181 and 0.55, the “Conjunctival OS (Nasal), Mean” value [6, 9] was 0.60±0.148 and 0.60 and the “Conjunctival OS (Temporal), Mean” value [6, 9] was 0.40±0.134 and 0.40. The “Keratitis OD Corneal, Mean” value [6, 9] was 0.050±0.050 and 0.050, the “Keratitis OS Corneal, Mean” value [6, 9] was 0.20±0.156 and 0.20 and the “Anterior Blepharitis, Mean” value [6, 10] was 0.38±0.114 and 0.38. The “Obstruction, Mean” value [6, 10] was 1.58±0.236 and 1.58, the “Turbidity, Mean” value [6, 10] was 2.3±0.193 and 2.3 and the “Vascularity, Mean” value [6, 10] was 1.48±0.253 and 1.48. For the same molecule, the “Zone A, Mean” value [6, 10] was 3.125±0.188 and 3.125, the “Subjective Global Assessment, Mean” value ([6]; post-treatment, n=20, scale 0-10) was 4.6±0.534 and 4.6 and the “improvement of turbidity score, percent” value ([6]; pre vs post-treatment, n=20) was 22.03%. For the same molecule, the “improvement of zone A score, percent” value ([6]; pre vs post-treatment, n=20) was 11.97%, the “mean improvement in anterior blepharitis score” value [6, 11] was 0.175±0.230 and the “mean improvement in obstruction score” value [6, 11] was 0.40±0.222. The “mean improvement in turbidity score” value [6, 11] was 0.65±0.141, the “mean improvement in vascularity score” value [6, 11] was 0.25±0.194 and the “mean improvement in zone A score” value [6, 11] was 0.425±0.186. The “improvement in self-reported global assessment scores” value ([6]; pre vs post-treatment, n=20, positive = score decrease, scale 0-10) was 1.4±0.597, the “Vision OD (log Mar units), Change %” value ([6]; pre-post change, n = 19) was 213.64% and the “Vision OD, mean change” value ([6]; pre-post change, n = 19) was 0.047±0.043 log Mar units and 0.047 log Mar units. For the same molecule, the “Anterior Blepharitis, Change %” value ([6]; pre-post change, n=20) was −31.82%, the “Conjunctival OD (Nasal), Change %” value ([6]; pre-post change, n=20) was −20.00% and the “Conjunctival OD (Temporal), Change %” value ([6]; pre-post change, n=20) was −29.49%. For the same molecule, the “Conjunctival OS (Nasal), Change %” value ([6]; pre-post change, n=20) was −36.84%, the “Conjunctival OS (Temporal), Change %” value ([6]; pre-post change, n=20) was 20.00% and the “Keratitis OD (Corneal), Change %” value ([6]; pre-post change, n=20) was −50.00%. The “Keratitis OS (Corneal), Change %” value ([6]; pre-post change, n=20) was 0.00%, the “Obstruction, Change %” value ([6]; pre-post change, n=20) was −20.25% and the “Schirmer's OD (mm), Change %” value ([6]; pre-post change, n=20) was −3.71%. The “Schirmer's OD, mean change” value ([6]; pre-post change, n=20) was −0.525±1.496 mm and −0.525 mm, the “Schirmer's OS (mm), Change %” value ([6]; pre-post change, n=20) was 1.75% and the “Schirmer's OS, mean change” value ([6]; pre-post change, n=20) was 0.250±1.008 mm and 0.25 mm. For the same molecule, the “Subjective Global Assessment, Change %” value ([6]; pre-post change, n=20) was −23.33%, the “Turbidity, Change %” value ([6]; pre-post change, n=20) was −22.03% and the “Vascularity, Change %” value ([6]; pre-post change, n=20) was −14.45%. The “Vision OS (log Mar units), Change %” value ([6]; pre-post change, n=20) was −7.20%, the “Zone A, Change %” value ([6]; pre-post change, n=20) was −11.97% and the “Conjunctival OD (Nasal), Mean Change” value [6, 12] was −0.20±0.142 and −0.20. The “Conjunctival OD (Temporal), Mean Change” value [6, 12] was −0.23±0.187 and −0.23, the “Conjunctival OS (Nasal), Mean Change” value [6, 12] was −0.35±0.146 and −0.35 and the “Conjunctival OS (Temporal), Mean Change” value [6, 12] was 0.10±0.204 and 0.10. For the same molecule, the “Keratitis OD Corneal, mean change” value [6, 12] was −0.05±0.114 and −0.05, the “Keratitis OS Corneal, mean change” value [6, 12] was 0.00±0.126 and 0.00 and the “Anterior Blepharitis, mean change” value [6, 13] was −0.175. For the same molecule, the “Obstruction, mean change” value [6, 13] was −0.4, the “Turbidity, mean change” value [6, 13] was −0.65 and the “Vascularity, mean change” value [6, 13] was −0.25. The “Zone A, mean change” value [6, 13] was −0.425 and the “Subjective Global Assessment, mean change” value ([6]; pre-post change, n=20, scale 0-10) was −1.4.
